Here are results for three compounds from publication PMC11788822, “Uncovering the potent antimicrobial activity of squaramide based anionophores – chloride transport and membrane disruption” (Chemical Science, 2025).

Details of data set [1]: method as in doi:10.1021/jo01097a026. The following applies: for the relevant substitution pattern; cited from earlier work.
Data set [2] deals with S. aureus. Description: DNA release luminescence assay with Ru(phen)2(dppz)Cl2. The following applies: 100 μM, 1 h, vs untreated control. It counts as cell-based, Staphylococcus aureus. As to the method: In addition to assays monitoring the uptake of PI, luminescence assays to monitor the release of cellular components such as DNA/RNA were also undertaken. Using Ru(phen)2(dppz)Cl2, which acts as a highly sensitive, “off-to-on” emissive probe for nucleic acids (NA),[49–51] we assessed the levels of NA release from cells upon treatment with 1, 2, and 4 (100 μM) by comparing emission intensity of the complex in the absence of nucleic acids, to untreated controls, and treated samples (Fig. 4C). When Ru(phen)2(dppz)Cl2 was added to sterile nutrient broth, which lacks nucleic acids, emission from the ^3MLCT band (ca. 620 nm) is highly quenched, however, when added to culture supernatant in the absence of treatment with 1, 2, or 4 we see a large increase in ^3MLCT derived luminescence indicating the presence of nucleic acids in the solution. This initial luminescence increase is unsurprising, as S. aureus is known to release DNA under active growth conditions, in the form of eDNA,[52] which acts as a chemical messenger for microbial species.[53] […] This additional increase in luminescence indicates a heightened level of extracellular NA and may be another indication of membrane disruption. […] Indeed, a significant increase in luminescence would not be expected, as the release of large architectures such as those observed for nucleic acids is slow, due to the bulk of the biomolecules.
1 mL aliquots of S. aureus cultures brought to early stationary phase overnight were brought to an OD600 = 0.2 and 100 µL of this suspension was added to 96 well plates, whereafter 100 µL of PBS containing; no compound (- control), or compound (2x desired concentration) was added to the suspension. The resultant mixture was incubated at 37 °C for 2 hr whereafter fluorescence intensity from PI (DNA bound form) was quanitified (λ exc/em = 535/615 nm) using a Clariostar plate reader. In the case of time course experiments, Measurement cycles were set for two hours, following addition of the respective compound (T0). Fluorescence was subsequently plotted as F/F0.
DNA release luminescence assay […]

In data set [3] the test system is S. aureus cells. Description: MQAE chloride influx assay. It counts as cell-based, Staphylococcus aureus. The following applies: 5 min, MQAE fluorescence fitted to Stern–Volmer equation. As to the method:
To study this, we utilised N-(ethoxycarbonylmethyl)-6-methoxyquinolinium bromide (MQAE) as a fluorescent reporter for cellular Cl^− levels. MQAE fluorescence is highly sensitive to Cl^− flux, where increased cytosolic Cl^− concentration gives rise to a collisional quenching effect. […] To do this, cells were pre-treated with MQAE and then exposed to varying concentrations of 1, 2 and 4, whereafter MQAE fluorescence was read at T = 5 min, and plotted relative to control (Fig. 3).
Furthermore, using the fluorescence data acquired from these assays, and fitting to the Stern–Volmer equation, we could approximate the increased concentration of Cl^− with respect to basal fluorescence for each of the concentrations studied (Table 3). […]
MQAE chloride influx assay
(§1) From an overnight culture brought to stationary phase (OD600 = ~1.0) was taken samples, brought to an OD600 = 0.2, which were treated with N-Ethoxycarbonylmethyl-6-methoxyquinolium Bromide (MQAE) (10 mM) for 1 h at 37 0C. Subsequently, cells were washed with & resuspended in PBS. 2 mL of samples were taken & transferred to a fluorescence cuvette, whereupon fluorescence was read (λexc = 350 nm (slit width = 5 nm) λem = 460 nm (slit width = 5 nm)) using a Cary Eclipse Fluorescence Spectrophotometer (Agilent Technologies). Subsequently samples were treated with the Compound of interest for 5 mins whereafter fluorescence was measured as previous, with intensity plotted relative to control, […]
or measured over the course of 2 hrs, starting at T0 (upon addition of compound).
Alternatively, 200 µL aliquots of cell suspension were added to a 96-well plate, to the desired quantity, and were either untreated (control), or treated with the compound of interest for 5 mins, whereafter fluorescence was read using a BMG Labtech Clariostar Plus platereader, and plotted relative to control. […]
Subsequently, cells were resuspended in 1 mL PBS, and treated with a the respective fluorophore or compound of interest at the specified concentration or […]

Data set [4] has as its system G. mellonella larvae. Description: Galleria mellonella in vivo toxicity. The following applies: larvae dosed at 10× IC50, monitored over 72 h. As to the method:
Next, to assess the medicinal validity of compounds 1, 2, and 4 we investigated the in vivo toxicity of these compounds using the Galleria mellonella model organism. This model has been introduced as an alternative model to study microbial infections as it can be easily and inexpensively obtained and doesn't require specialised lab equipment or impose significant ethical constraints. […] Thus, G. mellonella larvae were dosed with a concentration of each compound at 10× IC50 and monitored for signs of toxicity or death over a 72 hour window.
Bacterial cultures were brought to early stationary phase overnight, in nutrient broth (containing 25/50 µg/mL Ampicillin for MRSA/K. pneumoniae, respectively) at 37 °C. Cultures were diluted to an OD600 = 0.01. Aliquots of Culture (100 µl) were added to 100 µL serially diluted compound (200 – 0.78 µM) in nutrient broth in a 96-well plate (Sarstedt, Germany).
Plates were incubated at 37 °C for 24 h and growth was measured at 600 nm, where growth was measured and represented relative to control.
Galleria mellonella toxicity studies
To ascertain inherent compound toxicity, 10 healthy G. mellonella larvae were selected and weighed ensuring to keep larval weight approx. 0.25 g (+ 0.05 g). This constituted one sample set for experiments. […] Larvae were subsequently monitored for up to […], for signs of toxicity, melanisation and death. […]
as §1, with “Subsequently, cells were washed with & resuspended in PBS.” left out

SMILES strings stand for the structures.

Take `O=c1c(Nc2ccc(Cl)c(Cl)c2)c(NC23CC4CC(CC(C4)C2)C3)c1=O` [Compound 2]: in data set [1], the “Hammett parameter (σ)” value is reported as 0.6. The “Ru(phen)2(dppz)Cl2 luminescence in culture supernatant (nucleic acid release)” value (from here on “Ru(phen)2(dppz)Cl2 luminescence”) in data set [2] was “further increased”. Moreover, the “Increase in chloride concentration from basal level [Clθ] (mM)” value (“Increase in chloride concentration” below) is on record as “+0.21 (±0.02) mM” in data set [3] (10 μM compound), “+1.53 (±0.07) mM” in data set [3] (50 μM compound), “+2.91 (±0.02) mM” in data set [3] (100 μM compound) and “+5.49 (±0.01) mM” in data set [3] (200 μM compound). Moreover, in data set [4], the “signs of toxicity or death” value was “no appreciable signs of acute/chronic toxicity”.
Take `O=c1c(Nc2ccc([N+](=O)[O-])cc2)c(NC23CC4CC(CC(C4)C2)C3)c1=O` [Compound 4]: in data set [1], the “Hammett parameter (σ)” value was 0.78. Further, in data set [2], the “Ru(phen)2(dppz)Cl2 luminescence” value is “further increased”. The “Increase in chloride concentration” value in data set [3] (10 μM compound) was “+0.61 (±0.07) mM”; in data set [3] (50 μM compound), “+1.74 (±0.02) mM”; in data set [3] (100 μM compound), “+3.57 (±0.18) mM”; in data set [3] (200 μM compound) it was “+10.19 (±0.08) mM”. Also, the “signs of toxicity or death” value in data set [4] is recorded as “no appreciable signs of acute/chronic toxicity”.
Regarding `O=c1c(Nc2cc(C(F)(F)F)cc(C(F)(F)F)c2)c(NC23CC4CC(CC(C4)C2)C3)c1=O` [Compound 1], the “Hammett parameter (σ)” value in data set [1] is given as 0.86. Besides, the “Ru(phen)2(dppz)Cl2 luminescence” value in data set [2] is “further increased”. In addition, the “Increase in chloride concentration” value is “+0.31 (±0.02) mM” in data set [3] (10 μM compound), “+1.44 (±0.16) mM” in data set [3] (50 μM compound), “+4.22 (±2.01) mM” in data set [3] (100 μM compound) and “+13.31 (±3.05) mM” in data set [3] (200 μM compound). Also, the “signs of toxicity or death” value in data set [4] is given as “no appreciable signs of acute/chronic toxicity”.
